This note sets out measurements from ChEMBL document CHEMBL4417631, “Oral peptide inhibitors of interleukin-23 receptor and their use to treat inflammatory bowel diseases” (2017).

Structures are written as SMILES. Where a SMILES comes first, the peptide text is derived from it. A value given as a limit tells only on which side of the number the result lay.

In general, IC50 refers to the concentration at which inhibition is half-maximal. Lower therefore signals higher potency.

The test deals with T1, Interleukin-23 receptor (Homo sapiens, UniProt Q5VWK5).
T1 sequence (Q5VWK5 whole entry): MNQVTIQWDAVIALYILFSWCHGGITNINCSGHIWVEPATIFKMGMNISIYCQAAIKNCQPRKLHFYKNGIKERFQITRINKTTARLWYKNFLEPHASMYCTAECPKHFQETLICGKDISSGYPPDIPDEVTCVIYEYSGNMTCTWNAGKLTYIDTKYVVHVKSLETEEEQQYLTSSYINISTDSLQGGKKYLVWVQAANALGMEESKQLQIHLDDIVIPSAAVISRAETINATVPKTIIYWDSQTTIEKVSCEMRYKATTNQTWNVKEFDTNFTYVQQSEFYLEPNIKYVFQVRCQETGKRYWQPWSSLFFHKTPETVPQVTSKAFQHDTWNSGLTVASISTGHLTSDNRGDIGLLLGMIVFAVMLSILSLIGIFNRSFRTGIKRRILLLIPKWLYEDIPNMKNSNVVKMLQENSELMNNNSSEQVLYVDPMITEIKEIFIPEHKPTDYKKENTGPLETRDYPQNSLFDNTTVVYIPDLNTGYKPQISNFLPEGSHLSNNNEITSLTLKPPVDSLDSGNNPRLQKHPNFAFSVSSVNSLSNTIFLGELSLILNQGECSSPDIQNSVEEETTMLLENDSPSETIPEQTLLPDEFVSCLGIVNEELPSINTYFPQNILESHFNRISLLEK
As to the kind of experiment: Inhibition of interleukin-23 binding to human interleukin-23 receptor incubated for 2 hrs by competitive binding ELISA.
Molecule `CC(=O)N[C@@H](CS)C(=O)N[C@@H](CCC(N)=O)C(=O)N[C@H](C(=O)N[C@@H](Cc1c[nH]c2ccccc12)C(=O)N[C@@H](CCC(N)=O)C(=O)N[C@@H](CS)C(=O)N[C@@H](Cc1ccc(O)cc1)C(=O)N[C@H](CC(=O)N[C@@H](CCCNC(=N)N)C(=O)N[C@H](C(=O)N[C@@H](CC(N)=O)C(=O)NCC(=O)NCCOCC(=O)N[C@H](CCCCN)C(N)=O)C(C)C)Cc1ccc(F)cc1)[C@@H](C)O` had an IC50 of over 30000 nM. As for `CC(C)[C@H](NC(=O)[C@H](Cc1c[nH]c2ccccc12)NC(=O)[C@H](CC(=O)O)NC(=O)[C@H](C)NC(=O)[C@H](CS)NC(=O)COCCN)C(=O)N[C@@H](CS)C(=O)N[C@@H](Cc1ccc(O)cc1)C(=O)N[C@@H](Cc1c[nH]c2ccccc12)C(=O)N[C@@H](Cc1cnc[nH]1)C(=O)N[C@H](C(=O)N[C@@H](Cc1ccccc1)C(=O)NCC(=O)O)[C@@H](C)O`, the figure is over 1000 nM; as for `CC(=O)N[C@@H](CS)C(=O)N[C@@H](C)C(=O)N[C@@H](CC(=O)O)C(=O)N[C@@H](Cc1c[nH]c2ccccc12)C(=O)N[C@H](C(=O)N[C@@H](CS)C(=O)N[C@@H](Cc1ccc(O)cc1)C(=O)N[C@@H](Cc1c[nH]c2ccccc12)C(=O)N[C@@H](Cc1cnc[nH]1)C(=O)N[C@H](C(=O)N[C@@H](Cc1ccccc1)C(=O)N[C@@H](CC(=O)O)C(=O)N[C@@H](CCCCNC(=O)COCC(=O)NCCCC[C@H](NC(=O)[C@H](CC(=O)O)NC(=O)[C@H](Cc1ccccc1)NC(=O)[C@@H](NC(=O)[C@H](Cc1cnc[nH]1)NC(=O)[C@H](Cc1c[nH]c2ccccc12)NC(=O)[C@H](Cc1ccc(O)cc1)NC(=O)[C@H](CS)NC(=O)[C@@H](NC(=O)[C@H](Cc1c[nH]c2ccccc12)NC(=O)[C@H](CC(=O)O)NC(=O)[C@H](C)NC(=O)[C@H](CS)NC(C)=O)C(C)C)[C@@H](C)O)C(=O)O)C(=O)O)[C@@H](C)O)C(C)C`, over 10000 nM. Under `CC(=O)N[C@@H](CS)C(=O)N[C@@H](CCCNC(=N)N)C(=O)N[C@@H](CC(=O)O)C(=O)N[C@@H](Cc1c[nH]c2ccccc12)C(=O)N[C@@H](CCC(N)=O)C(=O)N[C@@H](CS)C(=O)N[C@@H](Cc1ccc(O)cc1)C(=O)N[C@@H](Cc1c[nH]c2ccccc12)C(=O)N[C@@H](Cc1cnc[nH]1)C(=O)N[C@@H](CCCCN)C(=O)N[C@@H](Cc1ccccc1)C(=O)NCC(=O)NCCOCCC(=O)N[C@H](CCCCN)C(=O)O` stands under 500 nM; under `COc1ccc(C[C@H](NC(=O)[C@@H](NC(=O)[C@H](CCC(N)=O)NC(=O)[C@H](Cc2c[nH]c3ccccc23)NC(=O)[C@@H](NC(=O)[C@H](CCC(N)=O)NC(=O)[C@@H](NC(=O)Cc2ccc(-c3ccccc3)cc2)C(C)(C)S)[C@@H](C)O)C(C)(C)S)C(=O)N[C@@H](Cc2ccc3ccccc3c2)C(=O)N[C@@](C)(CCCCN)C(=O)N[C@@H](CCCCNC(C)=O)C(=O)N[C@@H](CC(N)=O)C(=O)NCC(N)=O)cc1`, 100 to 1000 nM; under `CC(=O)N[C@@H](CS)C(=O)N[C@@H](CCC(N)=O)C(=O)N[C@H](C(=O)N[C@@H](Cc1c[nH]c2ccccc12)C(=O)N[C@@H](CCC(N)=O)C(=O)N[C@@H](CS)C(=O)N[C@@H](Cc1ccc(O)cc1)C(=O)N[C@@H](Cc1c[nH]c2ccccc12)C(=O)N[C@@H](CCCNC(=N)N)C(=O)N[C@@H](CCCCN)C(=O)N[C@@H](CC(N)=O)C(=O)NCC(=O)NCCOCC(=O)N[C@H](CCCCN)C(N)=O)[C@@H](C)O`, under 500 nM. `CC(=O)N[C@@H](CS)C(=O)N[C@@H](C)C(=O)N[C@@H](CC(=O)O)C(=O)N[C@@H](Cc1c[nH]c2ccccc12)C(=O)N[C@H](C(=O)N[C@@H](CS)C(=O)N[C@@H](Cc1ccc(O)cc1)C(=O)N[C@@H](Cc1cccc2ccccc12)C(=O)N[C@@H](Cc1cnc[nH]1)C(=O)N[C@H](C)C(=O)N[C@@H](Cc1ccccc1)C(=O)NCC(N)=O)C(C)C`: the IC50 is over 1000 nM.

`CSCC[C@H](NC(=O)[C@H](CS)NC(=O)[C@H](Cc1cnc[nH]1)NC(=O)[C@@H](NC(=O)[C@H](CO)NC(=O)CNC(C)=O)C(C)C)C(=O)N[C@H](C(=O)N[C@@H](Cc1c[nH]c2ccccc12)C(=O)N[C@@H](CCC(=O)O)C(=O)N[C@@H](CS)C(=O)N[C@@H](Cc1ccc(O)cc1)C(=O)N[C@@H](Cc1c[nH]c2ccccc12)C(=O)N[C@@H](Cc1cnc[nH]1)C(=O)N[C@H](C(=O)N[C@@H](Cc1ccccc1)C(=O)NCC(N)=O)[C@@H](C)O)[C@@H](C)O` (Ac-GSVHCMTWECYWHTFG-NH2) returned an IC50 of 500 to 1000 nM.

The molecule `CC(C)[C@H](NC(=O)[C@H](Cc1c[nH]c2ccccc12)NC(=O)[C@@H](NC(=O)[C@H](CCC(N)=O)NC(=O)[C@@H](N)CS)[C@@H](C)O)C(=O)N[C@@H](CS)C(=O)N[C@@H](Cc1ccc(O)cc1)C(=O)N[C@@H](Cc1c[nH]c2ccccc12)C(=O)N[C@@H](Cc1cnc[nH]1)C(=O)N[C@H](C(=O)N[C@@H](Cc1ccc(O)cc1)C(=O)NCC(N)=O)[C@@H](C)O` (H-CQTWVCYWHTYG-NH2) had a 50% inhibitory concentration (IC50) of over 1000 nM. As for `CC(=O)N[C@@H](CS)C(=O)N[C@@H](CCC(N)=O)C(=O)N[C@H](C(=O)N[C@@H](Cc1c[nH]c2ccccc12)C(=O)N[C@H](C(=O)N[C@@H](CS)C(=O)N[C@@H](Cc1ccc(O)cc1)C(=O)N[C@@H](Cc1c[nH]c2ccccc12)C(=O)N[C@@H](CCCNC(=N)N)C(=O)N[C@@H](CCC(=O)O)C(=O)N[C@@H](CC(N)=O)C(=O)NCC(=O)NCCOCC(=O)N[C@H](CCCCN)C(N)=O)C(C)C)[C@@H](C)O`, the figure is under 500 nM; as for `CC(=O)N[C@@H](CS)C(=O)N[C@@H](CCC(N)=O)C(=O)N[C@H](C(=O)N[C@@H](Cc1c[nH]c2ccccc12)C(=O)N[C@@H](CCC(N)=O)C(=O)N[C@@H](CS)C(=O)N[C@@H](Cc1ccc(O)cc1)C(=O)N[C@@H](Cc1c[nH]c2ccccc12)C(=O)N[C@@H](CCCNC(=N)N)C(=O)N[C@@H](CCCNC(=N)N)CC(=O)N[C@H](C(=O)N[C@@H](CC(N)=O)C(=O)NCC(=O)NCCOCC(=O)N[C@H](CCCCN)C(N)=O)C(C)C)[C@@H](C)O`, 922 nM. Under `CC(=O)N[C@@H](CS)C(=O)N[C@@H](CCCNC(=N)N)C(=O)N[C@H](C(=O)N[C@@H](Cc1c[nH]c2ccccc12)C(=O)N[C@@H](CCC(N)=O)C(=O)N[C@@H](CS)C(=O)N[C@@H](Cc1ccc(O)cc1)C(=O)N[C@@H](Cc1c[nH]c2ccccc12)C(=O)N[C@@H](CCCNC(=N)N)C(=O)N[C@@H](CCCCN)C(=O)N[C@@H](Cc1ccccc1)C(=O)NCC(=O)NCCOCC(=O)N[C@H](CCCCN)C(N)=O)[C@@H](C)O` stands under 500 nM; under `CC(C)[C@H](NC(=O)[C@H](Cc1c[nH]c2ccccc12)NC(=O)[C@H](CC(=O)O)NC(=O)[C@H](C)NC(=O)[C@@H](N)CS)C(=O)N[C@@H](CS)C(=O)N[C@@H](Cc1ccc(O)cc1)C(=O)N[C@@H](Cc1cccc2ccccc12)C(=O)N(C)[C@@H](Cc1cnc[nH]1)C(=O)N[C@H](C(=O)N[C@@H](Cc1ccccc1)C(=O)O)[C@@H](C)O`, over 1000 nM. As for `CC(=O)N[C@H](C(=O)N[C@@H](CCC(N)=O)C(=O)N[C@H](C(=O)N[C@@H](Cc1c[nH]c2ccccc12)C(=O)N[C@@H](CCC(N)=O)C(=O)N[C@H](C(=O)N[C@@H](Cc1cc(F)cc(F)c1)C(=O)N[C@@H](Cc1ccc2ccccc2c1)C(=O)N[C@@](C)(CCCN)C(=O)N[C@@H](CCC(N)=O)C(=O)N[C@@H](CC(N)=O)C(=O)NCC(N)=O)C(C)(C)S)[C@@H](C)O)C(C)(C)S`, the figure is 100 to 1000 nM.
